{"source": "paper PMC7051184", "about": "“C9orf72 arginine-rich dipeptide repeat proteins disrupt karyopherin-mediated nuclear import” (eLife, 2020)", "key": {"[1]": {"experiment": "Bead halo assay, bare neutravidin beads (non-specific control)", "conditions": "AF488-labeled, 200 nM, binding buffer", "procedure": "The bead halo assay was carried out as described with minor modifications ([Patel and Rexach, 2008]), using […] polystyrene beads coated with neutravidin (for biotinylated proteins) or glutathione (for GST-fusion proteins) (Spherotech, Lake Forest, IL). Beads were coated overnight at 4°C at saturating concentrations per manufacturers’ instructions and rinsed 2x in binding buffer (20 mM HEPES [pH 7.4], 150 mM KOAc, 2 mM Mg(OAc)2, 1 mM DTT, 0.1% Tween-20). Immediately prior to the assay, fluorescent bait proteins and beads were combined with 4x assay buffer (40 mM EDTA, 40 mg/ml BSA, 500 mM NaCl, and 0.2% Tween) to a total of 40 µL per well, in optical glass-bottom 96-well plates (Cellvis, Mountain View, CA). Reactions were allowed to equilibrate at room temperature for a minimum of 30 min prior to imaging at 100x on an LSM800 confocal microscope (Zeiss, Oberkochen, Germany). Intensity profiles comparing the maximum rim intensity to the background were plotted in ImageJ (NIH) by an investigator blinded to experimental conditions."}, "[2]": {"system": "hnRNPA1", "experiment": "DPR aggregation assay and western blot, hnRNPA1", "type": "biochemical, human", "conditions": "normalized to untreated HEK cells on the same membrane", "procedure": "(§1) Supernatant and pellet fractions (for all 5 DPRs, and control/buffer only) were prepared as in the nuclear transport assays, by adding 100 µM 10mers to 2.5 mg/ml HEK lysate in 100 µL TRB. Supernatants were boiled in Laemmli (BioRad) for 5 min. Pellets were boiled for 15 min followed by sonication in order to fully disperse aggregates for SDS-PAGE. Equal volumes of supernatant and pellet fractions were run on 4–12% Bolt Bis-Tris Plus gels (ThermoFisher), transferred to nitrocellulose membrane using an iBlot2 dry blotting system (ThermoFisher). Protein loading was analyzed by BLOT-Faststain (G-biosciences, St. Louis, MO), according to the manufacterers’ instructions. For immunodetection, membranes were blocked with 5% non-fat milk in TBST and probed by sequential incubation with the primary antibodies as detailed in the table below. Detection was by HRP-conjugated secondary antibodies/chemiluminescence using an ImageQuant LAS 4000 system (GE, Chicago, IL). To permit sequential probing of membranes without stripping, signals were quenched by incubation with prewarmed 30% H20_2 for 20 min ([Sennepin et al., 2009]). Band intensities were measured by ImageQuant software. For pellet vs. supernatant fractions, all were expressed as percent untreated control. For blots in Figure 1E, samples were run on 4–20% SDS PAGE minigels (ThermoFisher) and blotted to PVDF membranes (Immun-Blot PVDF, Bio-Rad) using the Bio-Rad TransBlot Turbo apparatus, and probed as above. The chemiluminescence signal was captured with a Bio-Rad ChemiDoc XRS+ digital imaging system."}, "[3]": {"system": "RCC1", "experiment": "DPR aggregation assay and western blot, RCC1 (negative control)", "type": "biochemical, human", "conditions": "100 µM 10mer in 2.5 mg/ml HEK lysate, normalized to untreated HEK", "procedure": "as §1"}, "[4]": {"system": "DDX3X", "experiment": "DPR aggregation assay and western blot, DDX3X", "type": "biochemical, human", "conditions": "normalized to untreated HEK cells on the same membrane", "procedure": "as §1"}, "[5]": {"system": "FUS", "experiment": "DPR aggregation assay and western blot, FUS", "type": "biochemical, human", "conditions": "normalized to untreated HEK cells on the same membrane", "procedure": "as §1"}, "[6]": {"system": "Nup133", "experiment": "DPR aggregation assay and western blot, Nup133", "type": "biochemical, human", "conditions": "100 µM 10mer in 2.5 mg/ml HEK lysate, normalized to untreated HEK", "procedure": "as §1"}, "[7]": {"target": "importin β-mediated nuclear import of Rango (Homo sapiens, UniProt Q14974)", "sequence (Q14974 whole entry)": "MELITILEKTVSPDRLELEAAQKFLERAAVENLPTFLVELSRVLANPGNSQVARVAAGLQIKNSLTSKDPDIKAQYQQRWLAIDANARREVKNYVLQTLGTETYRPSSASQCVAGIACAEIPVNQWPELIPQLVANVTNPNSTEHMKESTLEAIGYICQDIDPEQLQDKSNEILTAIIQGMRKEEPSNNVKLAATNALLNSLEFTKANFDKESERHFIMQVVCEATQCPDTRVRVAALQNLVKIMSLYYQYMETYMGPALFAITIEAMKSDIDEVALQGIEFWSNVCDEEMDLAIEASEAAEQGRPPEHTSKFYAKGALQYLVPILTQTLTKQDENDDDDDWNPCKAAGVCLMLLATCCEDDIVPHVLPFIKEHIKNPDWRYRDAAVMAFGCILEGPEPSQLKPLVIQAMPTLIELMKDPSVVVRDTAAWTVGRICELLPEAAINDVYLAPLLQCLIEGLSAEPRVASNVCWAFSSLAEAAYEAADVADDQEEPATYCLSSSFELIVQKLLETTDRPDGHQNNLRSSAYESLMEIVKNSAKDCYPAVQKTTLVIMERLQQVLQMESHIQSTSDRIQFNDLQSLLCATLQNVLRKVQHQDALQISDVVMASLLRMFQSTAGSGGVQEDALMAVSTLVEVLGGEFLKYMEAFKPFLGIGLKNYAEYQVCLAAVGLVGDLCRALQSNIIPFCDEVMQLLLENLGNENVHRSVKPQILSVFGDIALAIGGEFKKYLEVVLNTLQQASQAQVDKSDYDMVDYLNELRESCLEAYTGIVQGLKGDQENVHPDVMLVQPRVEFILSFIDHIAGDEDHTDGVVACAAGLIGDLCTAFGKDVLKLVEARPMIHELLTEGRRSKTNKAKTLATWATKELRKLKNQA", "experiment": "Permeabilized cell nuclear import assay, Rango, HeLa", "type": "cell-based"}}, "note": "Where a SMILES comes first, the peptide text is derived from it."}
{"compound": "N=C(N)NCCC[C@H](NC(=O)[C@@H]1CCCN1C(=O)[C@H](CCCNC(=N)N)NC(=O)[C@@H]1CCCN1C(=O)[C@H](CCCNC(=N)N)NC(=O)[C@@H]1CCCN1C(=O)[C@H](CCCNC(=N)N)NC(=O)[C@@H]1CCCN1C(=O)[C@H](CCCNC(=N)N)NC(=O)[C@@H]1CCCN1C(=O)[C@H](CCCNC(=N)N)NC(=O)[C@@H]1CCCN1C(=O)[C@H](CCCNC(=N)N)NC(=O)[C@@H]1CCCN1C(=O)[C@H](CCCNC(=N)N)NC(=O)[C@@H]1CCCN1C(=O)[C@H](CCCNC(=N)N)NC(=O)[C@@H]1CCCN1C(=O)[C@H](CCCNC(=N)N)NC(=O)[C@@H]1CCCN1)C(=O)O", "note": "[PR10] (H-PRPRPRPRPRPRPRPRPRPR-OH; N-terminus and C-terminus assumed)", "values": [{"measurement": "Binding to bare beads", "setting": "[1]", "result": "modest non-specific binding"}, {"measurement": "hnRNPA1 band density, % control", "setting": "[2]; Pellet, Blot 1", "result": 165.2, "unit": "% control"}, {"measurement": "hnRNPA1 band density, % control", "setting": "[2]; Pellet, Blot 2", "result": 367.1, "unit": "% control"}, {"measurement": "hnRNPA1 band density, % control", "setting": "[2]; Supernatant, Blot 1", "result": 61.7, "unit": "% control"}, {"measurement": "hnRNPA1 band density, % control", "setting": "[2]; Supernatant, Blot 2", "result": 58.6, "unit": "% control"}, {"measurement": "RCC1 band density, Pellet", "setting": "[3]; Blot 1", "result": 27.7, "unit": "% control"}, {"measurement": "RCC1 band density, Supernatant", "setting": "[3]; Blot 1", "result": 103.7, "unit": "% control"}, {"measurement": "RCC1 band density, Pellet", "setting": "[3]; Blot 2", "result": 109.0, "unit": "% control"}, {"measurement": "RCC1 band density, Supernatant", "setting": "[3]; Blot 2", "result": 124.4, "unit": "% control"}, {"measurement": "DDX3X band density, % control", "setting": "[4]; Pellet, Blot 1", "result": 156.6, "unit": "% control"}, {"measurement": "DDX3X band density, % control", "setting": "[4]; Pellet, Blot 2", "result": 221.4, "unit": "% control"}, {"measurement": "DDX3X band density, % control", "setting": "[4]; Supernatant, Blot 1", "result": 10.9, "unit": "% control"}, {"measurement": "DDX3X band density, % control", "setting": "[4]; Supernatant, Blot 2", "result": 1.8, "unit": "% control"}, {"measurement": "FUS band density, % control", "setting": "[5]; Pellet, Blot 1", "result": 65.8, "unit": "% control"}, {"measurement": "FUS band density, % control", "setting": "[5]; Pellet, Blot 2", "result": 35.2, "unit": "% control"}, {"measurement": "FUS band density, % control", "setting": "[5]; Supernatant, Blot 1", "result": 99.5, "unit": "% control"}, {"measurement": "FUS band density, % control", "setting": "[5]; Supernatant, Blot 2", "result": 123.2, "unit": "% control"}, {"measurement": "Nup133 band density, Pellet", "setting": "[6]; Blot 1", "result": 156.5, "unit": "% control"}, {"measurement": "Nup133 band density, Supernatant", "setting": "[6]; Blot 1", "result": 45.6, "unit": "% control"}, {"measurement": "Nup133 band density, Pellet", "setting": "[6]; Blot 2", "result": 194.3, "unit": "% control"}, {"measurement": "Nup133 band density, Supernatant", "setting": "[6]; Blot 2", "result": 40.2, "unit": "% control"}]}
{"compound": "GA10: Synthetic 10-mer GA dipeptide repeat with C-terminal lysine and cysteine (GAGAGAGAGAGAGAGAGAGAKC)", "values": [{"measurement": "NCT inhibition in permeabilized HeLa", "setting": "[7]", "result": "did not see NCT inhibition"}]}
